Test results published in PubChem BioAssay (NCI).
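Results reflect a 48-hour exposure of cells in 96-well plates to compound at five concentrations. At the GI50, growth is halved. TGI marks complete inhibition of growth.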

Experiments:
Experiment in all cases: growth of human tumour cells (NCI), 48 h
RXF 393 renal = system: RXF 393 renal
A498 renal = system: A498 renal
COLO 205 colon = system: COLO 205 colon
UACC-62 melanoma = system: UACC-62 melanoma
NCI/ADR-RES ovarian = system: NCI/ADR-RES ovarian
HCT-116 colon = system: HCT-116 colon
UO-31 renal = system: UO-31 renal
MDA-MB-435 = system: MDA-MB-435
MALME-3M melanoma = system: MALME-3M melanoma
TK-10 renal = system: TK-10 renal
NCI-H226 lung = system: NCI-H226 lung
SN12C renal = system: SN12C renal
MOLT-4 leukemia = system: MOLT-4 leukemia
A549 NSCLC = system: A549 NSCLC
786-0 renal = system: 786-0 renal
HT29 colon = system: HT29 colon
CAKI-1 renal = system: CAKI-1 renal
MCF7 breast = system: MCF7 breast
NCI-H460 lung = system: NCI-H460 lung
K-562 leukemia = system: K-562 leukemia
OVCAR-4 ovarian = system: OVCAR-4 ovarian
U251 CNS = system: U251 CNS
SK-MEL-5 melanoma = system: SK-MEL-5 melanoma
UACC-257 melanoma = system: UACC-257 melanoma
SR leukemia = system: SR leukemia
EKVX NSCLC = system: EKVX NSCLC
SF-539 CNS = system: SF-539 CNS
ACHN renal = system: ACHN renal
OVCAR-5 ovarian = system: OVCAR-5 ovarian
KM12 colon = system: KM12 colon
SF-268 CNS = system: SF-268 CNS
SK-OV-3 ovarian = system: SK-OV-3 ovarian
OVCAR-8 ovarian = system: OVCAR-8 ovarian
M14 melanoma = system: M14 melanoma
HCC-2998 colon = system: HCC-2998 colon
RPMI-8226 leukemia = system: RPMI-8226 leukemia
DU-145 prostate = system: DU-145 prostate
PC-3 prostate = system: PC-3 prostate
SK-MEL-2 melanoma = system: SK-MEL-2 melanoma
NCI-H23 lung = system: NCI-H23 lung
CCRF-CEM leukemia = system: CCRF-CEM leukemia
SW-620 colon = system: SW-620 colon
HS 578T breast = system: HS 578T breast
HOP-62 NSCLC = system: HOP-62 NSCLC
HCT-15 colon = system: HCT-15 colon
LOX IMVI melanoma = system: LOX IMVI melanoma
T-47D breast = system: T-47D breast
SNB-19 CNS = system: SNB-19 CNS
SNB-75 CNS = system: SNB-75 CNS
HOP-92 NSCLC = system: HOP-92 NSCLC
MDA-MB-231 breast = system: MDA-MB-231 breast
IGROV1 ovarian = system: IGROV1 ovarian
OVCAR-3 ovarian = system: OVCAR-3 ovarian
SK-MEL-28 melanoma = system: SK-MEL-28 melanoma
BT-549 breast = system: BT-549 breast
HL-60(TB) leukemia = system: HL-60(TB) leukemia
NCI-H522 lung = system: NCI-H522 lung

## C/C(=N\NC(=O)c1ccc(C(C)(C)C)cc1)c1ccc(O)cc1O
RXF 393 renal
  GI50: 2.11 µM
  TGI: 10.2 µM
A498 renal
  GI50: 1.38 µM
  TGI: > 100 µM
COLO 205 colon
  GI50: 0.386 µM
  TGI: > 34.1 µM
UACC-62 melanoma
  GI50: 0.671 µM
  TGI: > 100 µM
NCI/ADR-RES ovarian
  GI50: 0.416 µM
  TGI: > 100 µM
HCT-116 colon
  GI50: 0.298 µM
  TGI: > 100 µM
UO-31 renal
  GI50: 0.377 µM
  TGI: > 100 µM
MDA-MB-435
  GI50: 0.81 µM
  TGI: > 100 µM
MALME-3M melanoma
  GI50: 1.14 µM
  TGI: 45.2 µM
TK-10 renal
  GI50: 0.886 µM
  TGI: > 100 µM
NCI-H226 lung
  GI50: 0.843 µM
  TGI: 14 µM
SN12C renal
  GI50: 1.24 µM
  TGI: > 100 µM
MOLT-4 leukemia
  GI50: 0.344 µM
  TGI: > 100 µM
A549 NSCLC
  GI50: 0.751 µM
  TGI: > 100 µM
786-0 renal
  GI50: 0.985 µM
  TGI: 13.5 µM
HT29 colon
  GI50: 0.689 µM
  TGI: 14.2 µM
CAKI-1 renal
  GI50: 0.392 µM
  TGI: 4.72 µM
MCF7 breast
  GI50: 0.628 µM
  TGI: > 100 µM
NCI-H460 lung
  GI50: 0.347 µM
  TGI: 10.3 µM
K-562 leukemia
  GI50: 0.568 µM
  TGI: > 100 µM
OVCAR-4 ovarian
  GI50: 0.306 µM
U251 CNS
  GI50: 0.615 µM
  TGI: > 100 µM
SK-MEL-5 melanoma
  GI50: 1.47 µM
  TGI: 4.74 µM
UACC-257 melanoma
  GI50: 1.51 µM
  TGI: > 100 µM
SR leukemia
  GI50: 0.379 µM
  TGI: > 62.2 µM
EKVX NSCLC
  GI50: 0.442 µM
  TGI: > 100 µM
SF-539 CNS
  GI50: 0.648 µM
  TGI: > 70.4 µM
ACHN renal
  GI50: 0.491 µM
  TGI: > 100 µM
OVCAR-5 ovarian
  GI50: 0.862 µM
  TGI: > 100 µM
KM12 colon
  GI50: 0.511 µM
  TGI: > 100 µM
SF-268 CNS
  GI50: 0.528 µM
  TGI: > 100 µM
SK-OV-3 ovarian
  GI50: 1.06 µM
  TGI: > 100 µM
OVCAR-8 ovarian
  GI50: 0.673 µM
  TGI: > 100 µM
M14 melanoma
  GI50: 0.532 µM
  TGI: 7.34 µM
HCC-2998 colon
  GI50: 0.638 µM
  TGI: 61.4 µM
RPMI-8226 leukemia
  GI50: 0.763 µM
  TGI: > 59.9 µM
DU-145 prostate
  GI50: 0.705 µM
  TGI: > 100 µM
PC-3 prostate
  GI50: 1.08 µM
  TGI: > 100 µM
SK-MEL-2 melanoma
  GI50: 2.38 µM
  TGI: > 100 µM
NCI-H23 lung
  GI50: 1.18 µM
  TGI: > 100 µM
CCRF-CEM leukemia
  GI50: 0.331 µM
  TGI: > 30.9 µM
SW-620 colon
  GI50: 0.602 µM
  TGI: > 100 µM
HS 578T breast
  GI50: 3.26 µM
  TGI: > 100 µM
HOP-62 NSCLC
  GI50: 0.484 µM
  TGI: > 100 µM
HCT-15 colon
  GI50: 0.396 µM
  TGI: > 100 µM
LOX IMVI melanoma
  GI50: 0.318 µM
  TGI: 1.92 µM
T-47D breast
  GI50: 1.07 µM
  TGI: > 100 µM
SNB-19 CNS
  GI50: 2.36 µM
  TGI: > 100 µM
SNB-75 CNS
  GI50: 1.27 µM
  TGI: 17.9 µM
HOP-92 NSCLC
  GI50: 4.22 µM
  TGI: > 100 µM
MDA-MB-231 breast
  GI50: 0.791 µM
  TGI: > 100 µM
IGROV1 ovarian
  GI50: 0.572 µM
  TGI: > 100 µM
OVCAR-3 ovarian
  GI50: 0.309 µM
  TGI: > 100 µM
SK-MEL-28 melanoma
  GI50: 1.67 µM
  TGI: > 100 µM
BT-549 breast
  GI50: 1.83 µM
  TGI: > 65.8 µM
HL-60(TB) leukemia
  GI50: 1.08 µM
  TGI: 11.1 µM
NCI-H522 lung
  GI50: 1.89 µM
  TGI: > 100 µM
